Experimental data reported in patent publication US9662318B2, “Bitopic muscarinic agonists and antagonists and methods of synthesis and use thereof” (BARRY UNIVERSITY, INC., priority 2012, dated 2017).
Like-named read-outs stand apart in the source and are kept apart here.

Tests used:
M4 muscarinic receptor [1] = target: T1, M4 muscarinic receptor (Homo sapiens, UniProt P08173); experiment: Accumulation of inositol phosphates in CHO cells; format: cell-based; details: M4; ligand 0.1 mM; no carbachol
T1 construct: host or cells: Chinese hamster ovary cells
T1 sequence (P08173 1-479): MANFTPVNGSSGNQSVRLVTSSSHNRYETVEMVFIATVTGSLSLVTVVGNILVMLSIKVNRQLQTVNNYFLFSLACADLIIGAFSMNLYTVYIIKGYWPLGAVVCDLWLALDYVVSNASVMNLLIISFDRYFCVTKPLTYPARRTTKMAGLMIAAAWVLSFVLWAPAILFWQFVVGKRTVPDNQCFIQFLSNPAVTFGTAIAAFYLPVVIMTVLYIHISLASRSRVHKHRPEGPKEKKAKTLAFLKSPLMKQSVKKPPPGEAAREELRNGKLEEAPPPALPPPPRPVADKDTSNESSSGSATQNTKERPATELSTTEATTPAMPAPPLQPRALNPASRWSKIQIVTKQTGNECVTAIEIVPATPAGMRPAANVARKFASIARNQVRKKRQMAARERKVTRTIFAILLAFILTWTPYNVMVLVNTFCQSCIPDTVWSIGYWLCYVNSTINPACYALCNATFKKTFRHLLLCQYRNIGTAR
Method: Chinese hamster ovary cells stably transfected with the genes of human variants of muscarinic receptors were purchased from Missouri S&T cDNA Resource Center (Rolla, Mo., USA). […] Cells were grown to confluency in 75 cm^2 flasks in Dulbecco's modified Eagle's medium supplemented with 10% fetal bovine serum and 2 million of cells were subcultured to 100 mm Petri dishes. Medium was supplemented with 5 mM butyrate for the last 24 hours of cultivation to increase receptor expression.
Inositolphosphates formation was determined in cells pre-labeled overnight by 0.5 μM [^3H]myo-inositol in 0.3 mL of DMEM (3 μCi/ml) at 37° C. […] Incubation was stopped by removal of incubation buffer and addition 0.2 mL 20% trichloracetic acid (TCA). After 1 h incubation at 4° C., 100 μL, of TCA extracts were taken for measurement. Rest of the TCA was removed, and TCA precipitates were washed with 200 μL TCA and dissolved in 200 μL of 1 M NaOH. After 1 h incubation at 4° C., 100 μL, of NaOH lysates were taken for measurement. Radioactivity in TCA extracts and NaOH lysates were determined by liquid scintillation counting. The rate of inositolphosphates accumulation was calculated as a percentage of the soluble (released) inositolphosphates from the total incorporated radioactivity (sum of radioactivity in NaOH lysates and TCA extracts).
EC50 values are expressed as negative logarithms and EMAX values as folds over basal, Table 7.

[2] = tested on: M1-M5 muscarinic receptors; format: binding, human; details: competition experiments, all M1-M5
M1 muscarinic receptor [3] = target: T2, M1 muscarinic receptor (Homo sapiens, UniProt P11229); experiment: biochemical; format: binding; details: competition with [^3H]QNB
T2 sequence (P11229 1-460): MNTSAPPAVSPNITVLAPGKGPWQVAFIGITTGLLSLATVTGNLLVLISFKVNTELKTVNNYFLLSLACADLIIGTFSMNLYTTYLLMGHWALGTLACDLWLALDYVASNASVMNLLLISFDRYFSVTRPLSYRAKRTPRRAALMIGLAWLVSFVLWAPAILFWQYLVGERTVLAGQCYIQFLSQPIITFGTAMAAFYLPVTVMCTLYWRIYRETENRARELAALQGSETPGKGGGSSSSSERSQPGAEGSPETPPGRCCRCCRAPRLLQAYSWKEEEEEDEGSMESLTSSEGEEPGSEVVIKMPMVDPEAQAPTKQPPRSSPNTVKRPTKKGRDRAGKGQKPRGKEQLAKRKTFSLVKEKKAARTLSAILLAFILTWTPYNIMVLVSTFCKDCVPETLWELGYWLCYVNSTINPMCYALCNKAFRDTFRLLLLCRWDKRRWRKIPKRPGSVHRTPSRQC

M1 muscarinic receptor [4] = target: T2, M1 muscarinic receptor; experiment: Dissociation of [3H]NMS (full time course kinetics); format: binding; details: [^3H]NMS dissociation
From the text: To probe the ability of JB-D4 to allosterically modulate orthosteric ligand, its effect on the rate of orthosteric radioligand dissociation has been investigated. […] Eq. 1 was fitted to the data from kinetic experiments. Data are means±SD from 3 independent experiments performed in quadruplicates. Equations: y=(100-f2)*e^(-Koff1*X)+f2*e^(-Koff2*X) (Eq. 1) where y is the percentage of radioligand binding at time x of radioligand binding at time 0, koff1 and koff2 are rate dissociation constants and f2 is the percentage of sites with koff2 rate of dissociation. […]. 2)

M3 muscarinic receptor = target: T3, M3 muscarinic receptor (Homo sapiens, UniProt P20309); experiment: Competition with [3H]NMS (equilibrium binding, CHO membranes); details: for IC50: competition with [^3H]NMS
T3 construct: host or cells: Chinese hamster ovary cells
Method: (§1) All radioligand binding experiments were optimized and carried out as described earlier. Briefly, membranes were incubated in 96-well plates at 30° C. in the incubation medium described. […] Dissociation was initiated by addition of atropine to final concentration of 5 Tested ligands in final concentration of 100 μM were added concurrently with atropine. Incubations were terminated by filtration through Whatman GF/C glass fiber filters (Whatman) using a Brandel cell harvester (Brandel, Gaithersburg, Md., USA). Filters were dried in vacuum for 1 h while heated at 80° C. and then solid scintillator Meltilex A was melted on filters (105° C., 90 s) using a hot plate. The filters were cooled and counted in Wallac Microbeta scintillation counter.
(§2) Inhibition constant KI was calculated as: […]

M5 muscarinic receptor = target: T4, M5 muscarinic receptor (Homo sapiens, UniProt P08912); experiment: as above; details: for IC50: competition with [^3H]NMS
T4 construct: host or cells: CHO (Chinese hamster ovary) cells, stably transfected
T4 sequence (P08912 1-532): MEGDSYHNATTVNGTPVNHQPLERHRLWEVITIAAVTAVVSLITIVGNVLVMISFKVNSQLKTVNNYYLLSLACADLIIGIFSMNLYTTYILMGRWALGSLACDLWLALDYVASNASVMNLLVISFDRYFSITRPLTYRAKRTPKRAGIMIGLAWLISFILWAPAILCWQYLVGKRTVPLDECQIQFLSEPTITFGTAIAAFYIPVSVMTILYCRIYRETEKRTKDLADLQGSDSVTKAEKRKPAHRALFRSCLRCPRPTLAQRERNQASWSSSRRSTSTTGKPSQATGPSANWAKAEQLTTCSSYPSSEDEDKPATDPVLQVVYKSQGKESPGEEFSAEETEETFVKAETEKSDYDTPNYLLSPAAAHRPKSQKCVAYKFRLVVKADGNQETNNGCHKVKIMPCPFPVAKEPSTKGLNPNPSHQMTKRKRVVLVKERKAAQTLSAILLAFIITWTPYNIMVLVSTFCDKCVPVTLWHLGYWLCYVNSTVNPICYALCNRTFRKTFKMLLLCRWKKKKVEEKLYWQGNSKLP
Method: as §1, §2

M4 muscarinic receptor [5] = target: T1, M4 muscarinic receptor; experiment: as above; details: for IC50: competition with [^3H]NMS
Method: as §1, §2

M1 muscarinic receptor [6] = target: T2, M1 muscarinic receptor; experiment: as above; details: for IC50: competition with [^3H]NMS
Method: as §1, §2

[7] = M1, average of 3, read-out: avg IC50
[8] = M1, experiment 1, read-out: IC50—1
[9] = M1, experiment 2, read-out: IC50—2
[10] = M1, experiment 3, read-out: IC50—3

T3 sequence (P20309 whole entry): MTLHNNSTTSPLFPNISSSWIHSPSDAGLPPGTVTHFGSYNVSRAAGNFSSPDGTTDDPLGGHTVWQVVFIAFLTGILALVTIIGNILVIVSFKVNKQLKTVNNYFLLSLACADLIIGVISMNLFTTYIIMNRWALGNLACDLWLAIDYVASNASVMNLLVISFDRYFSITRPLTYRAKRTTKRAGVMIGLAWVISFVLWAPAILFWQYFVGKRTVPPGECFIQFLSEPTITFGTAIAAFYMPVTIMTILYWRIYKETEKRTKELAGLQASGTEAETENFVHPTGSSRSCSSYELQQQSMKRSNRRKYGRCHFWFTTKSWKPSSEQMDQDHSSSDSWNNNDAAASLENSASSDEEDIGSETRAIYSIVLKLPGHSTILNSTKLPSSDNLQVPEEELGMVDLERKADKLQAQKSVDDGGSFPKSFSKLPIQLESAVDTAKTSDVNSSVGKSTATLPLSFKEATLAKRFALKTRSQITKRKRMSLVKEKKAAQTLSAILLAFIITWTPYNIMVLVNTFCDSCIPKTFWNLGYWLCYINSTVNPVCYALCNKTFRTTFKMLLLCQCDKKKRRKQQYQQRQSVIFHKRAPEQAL

CCCCOc1ccc(C(=O)OCC[N+]2(C)CCCCC2)cc1.[I-] [JB-D4, 2-(N-piperidineethyl) p-butoxybenzoate N-methyl iodide]
Effect of ligands on basal activity (accumulation of inositol phosphates as percent of accumulation in the absence of the ligand) (M4 muscarinic receptor [1]): 98 ± 4% | inhibition of QNB binding [2]: fully inhibit | Ki (M1 muscarinic receptor [3]; M1): 1040 nM | IC50 (M1 muscarinic receptor [3]; [7]): 8.78 µM | IC50 (M1 muscarinic receptor [3]; [8]): 8.72 µM | IC50 (M1 muscarinic receptor [3]; [9]): 9.42 µM | IC50 (M1 muscarinic receptor [3]; [10]): 8.19 µM | koff1 (M1 muscarinic receptor [4]; +0.1 mM JB-D4, M1): 0.91 ± 0.05 h⁻¹ | koff2 (M1 muscarinic receptor [4]; +0.1 mM JB-D4, M1): 1.15 ± 0.06 h⁻¹ | f2 (M1 muscarinic receptor [4]; +0.1 mM JB-D4, M1, percentage of sites with koff2): 12 ± 1% | koff1 (M1 muscarinic receptor [4]; +1 mM JB-D4, M1): 0.61 ± 0.06 h⁻¹ | IC50 (M3 muscarinic receptor; M3, average of 3, read-out: avg IC50): 16.9 µM | IC50 (M3 muscarinic receptor; M3, experiment 1, read-out: IC50—1): 16.6 µM | IC50 (M3 muscarinic receptor; M3, experiment 2, read-out: IC50—2): 17.2 µM | IC50 (M3 muscarinic receptor; M3, experiment 3, read-out: IC50—3): 16.9 µM | Ki (M3 muscarinic receptor; read-out: KI): 3.16 µM | IC50 (M5 muscarinic receptor; M5, average of 3, read-out: avg IC50): 12.5 µM | IC50 (M5 muscarinic receptor; M5, experiment 1, read-out: IC50—1): 12.5 µM | IC50 (M5 muscarinic receptor; M5, experiment 2, read-out: IC50—2): 11.2 µM | IC50 (M5 muscarinic receptor; M5, experiment 3, read-out: IC50—3): 13.7 µM | Ki (M5 muscarinic receptor; read-out: KI): 2880 nM | IC50 (M4 muscarinic receptor [5]; M4, average of 3, read-out: avg IC50): 41.8 µM | IC50 (M4 muscarinic receptor [5]; M4, experiment 1, read-out: IC50—1): 43.4 µM | IC50 (M4 muscarinic receptor [5]; M4, experiment 2, read-out: IC50—2): 42 µM | IC50 (M4 muscarinic receptor [5]; M4, experiment 3, read-out: IC50—3): 40 µM | Ki (M4 muscarinic receptor [5]; read-out: KI): 7.54 µM | IC50 (M1 muscarinic receptor [6]; [7]): 14.4 µM | IC50 (M1 muscarinic receptor [6]; [8]): 14.3 µM | IC50 (M1 muscarinic receptor [6]; [9]): 13.8 µM | IC50 (M1 muscarinic receptor [6]; [10]): 15.1 µM | Ki (M1 muscarinic receptor [6]; read-out: KI): 2880 nM
